Where a SMILES comes first, the peptide text is derived from it. Where no end group is shown, it is not given here. [ ]: non-standard residue; d: D form.
Assays:
[1] = molecular target: HSA (Human serum albumin) (Homo sapiens, UniProt P02768); assay: BIAcore X (SPR) affinity for HSA; assay type: binding; details: for kon: PBS pH 7.4, read-out: ka
Method: (§1) To investigate whether the activity is maintained where Aptamer-Like Peptides specifically binding to HSA (Human serum albumin), i.e., L-AptideHSA are converted into D- and Retro inverso (RI)-form, their affinity to a target was measured. Firstly, 3 peptides, L-AptideHSA ([…], all L-amino acids, SEQ ID NO:42), D-AptideHSA ([…], all D-amino acids, SEQ ID NO:42) and RI-AptideHSA ([…], all D-amino acids), were synthesized by Anigen Inc. (Korea). Their affinity for a target was determined using BIAcore X (Biacore AB, Uppsala, Sweden). HSA of 3000 RU was immobilized on CM5 chip (Biacore). A PBS (pH 7.4) was used as a running buffer, a flow rate was 30 μl/min, and the affinity was determined with BIAevaluation software (Biacore AB, Uppsala, Sweden) after measuring kinetics of various concentrations.

[2] = molecular target: T1, fibronectin EDB (Homo sapiens, UniProt P02751); assay: BIAcore X (SPR) affinity for fibronectin EDB; assay type: binding
T1 construct: Biotin-EDB of 2000 RU was immobilized on streptavidin SA chip
Method: To investigate whether the activity is maintained where Aptamer-Like Peptides specifically binding to fibronectin EDB, i.e., L-Aptide1EDB are converted into D- and Retro inverso (RI)-form, their affinity to a target was measured. Firstly, 3 peptides, L-Aptide1EDB ([…], all L-amino acids, SEQ ID NO:21), D-Aptide1EDB ([…], all D-amino acids, SEQ ID NO:21) and RI-Aptide1EDB ([…], all D-amino acids), were synthesized by Anigen Inc. (Korea). Their affinity for a target was determined using BIAcore X (Biacore AB, Uppsala, Sweden). Biotin-EDB of 2000 RU was immobilized on streptavidin SA chip (Biacore). A PBS (pH 7.4) was used as a running buffer, a flow rate was 30 μl/min, and the affinity was determined with BIAevaluation software (Biacore AB, Uppsala, Sweden) after measuring kinetics of various concentrations.

[3] = molecular target: T2, VEGF121 (Homo sapiens, UniProt P15692); assay: BIAcore X (SPR) affinity for VEGF; assay type: binding
T2 sequence (P15692 27-147 isoform P15692-9): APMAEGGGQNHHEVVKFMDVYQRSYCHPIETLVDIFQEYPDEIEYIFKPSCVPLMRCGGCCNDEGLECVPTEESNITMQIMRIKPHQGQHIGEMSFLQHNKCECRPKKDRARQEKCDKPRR
Method: as §1, with “VEGF (Vascular endothelial growth factor),” for “HSA (Human serum albumin),”, “L-Aptide1VEGF” for “L-AptideHSA”, “NO:23), D-Aptide1VEGF” for “NO:42), D-AptideHSA”, “NO:23)” for “NO:42)”, “RI-Aptide1VEGF” for “RI-AptideHSA”, “VEGF121” for “HSA”

[4] = molecular target: T3, HSA (Human serum albumin) (human, UniProt P02768 25-609); assay: SPR, BIAcore X; HSA on CM5 chip, peptide as analyte
T3 construct: HSA, 3000 RU, immobilised on a CM5 chip; also called HAS
T3 sequence (P02768 25-609 limits assumed): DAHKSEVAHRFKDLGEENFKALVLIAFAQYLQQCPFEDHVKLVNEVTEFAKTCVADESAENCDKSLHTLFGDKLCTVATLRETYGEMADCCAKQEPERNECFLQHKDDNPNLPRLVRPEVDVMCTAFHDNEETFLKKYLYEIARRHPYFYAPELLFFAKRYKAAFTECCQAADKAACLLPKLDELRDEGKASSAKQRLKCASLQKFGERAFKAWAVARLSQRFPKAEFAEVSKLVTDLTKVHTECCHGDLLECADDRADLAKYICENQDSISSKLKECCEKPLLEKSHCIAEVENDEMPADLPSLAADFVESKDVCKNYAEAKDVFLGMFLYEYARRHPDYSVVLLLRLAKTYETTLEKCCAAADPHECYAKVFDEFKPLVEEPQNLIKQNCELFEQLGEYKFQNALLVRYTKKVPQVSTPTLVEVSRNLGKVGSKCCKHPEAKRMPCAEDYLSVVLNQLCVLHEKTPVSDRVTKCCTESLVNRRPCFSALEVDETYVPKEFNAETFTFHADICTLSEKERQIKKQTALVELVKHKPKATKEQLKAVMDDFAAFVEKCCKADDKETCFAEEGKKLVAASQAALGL
Method: as §1, with “(Biacore).” for “(Biacore). A PBS (pH 7.4) was used as a running buffer, a flow rate was 30 μl/min, and the affinity was determined with BIAevaluation software (Biacore AB, Uppsala, Sweden) after measuring kinetics of various concentrations.”

[5] = molecular target: T4, VEGF121 (UniProt P15692-9 27-147); assay: SPR, BIAcore X; VEGF121 on CM5 chip, peptide as analyte
T4 construct: VEGF121, 3000 RU, immobilised on a CM5 chip; also called Vascular endothelial growth factor
T4 sequence (looked up): T2 sequence (P15692 27-147 isoform P15692-9)
Method: To investigate whether the activity is maintained where Aptamer-Like Peptides specifically binding to VEGF (Vascular endothelial growth factor), i.e., L-Aptide1VEGF are converted into D- and Retro inverso (RI)-form, their affinity to a target was measured. Firstly, 3 peptides, L-Aptide1VEGF ([…], all L-amino acids, SEQ ID NO:23), D-Aptide1VEGF ([…], all D-amino acids, SEQ ID NO:23) and RI-Aptide1VEGF ([…], all D-amino acids), were synthesized by Anigen Inc. (Korea). Their affinity for a target was determined using BIAcore X (Biacore AB, Uppsala, Sweden). VEGF₁₂₁ of 3000 RU was immobilized on CM5 chip (Biacore).

[6] = biotin-EDB on SA chip, PBS pH 7.4
[7] = VEGF121 on CM5 chip, PBS pH 7.4

CC[C@@H](C)[C@@H](NC(=O)CNC(=O)[C@@H](CCCCN)NC(=O)[C@@H](Cc1c[nH]c2ccccc12)NC(=O)[C@H](NC(=O)[C@@H](Cc1c[nH]c2ccccc12)NC(=O)[C@@H](CCCCN)NC(=O)CNC(=O)[C@@H](CC(N)=O)NC(=O)[C@@H](CCC(=O)O)NC(=O)[C@@H](Cc1c[nH]c2ccccc12)NC(=O)[C@H](NC(=O)[C@@H](Cc1c[nH]c2ccccc12)NC(=O)[C@@H](CO)NC(=O)CNC(=O)[C@@H](Cc1ccccc1)NC(=O)[C@@H](CC(N)=O)NC(=O)[C@@H](Cc1ccccc1)NC(=O)[C@@H](Cc1c[nH]cn1)NC(=O)[C@@H](C)NC(=O)[C@H](N)Cc1c[nH]cn1)[C@H](C)O)[C@H](C)O)C(=O)N[C@H](Cc1c[nH]c2ccccc12)C(=O)N[C@H](CC(C)C)C(=O)N1CCC[C@@H]1C(=O)N[C@H](C)C(=O)N[C@H](CCCNC(=N)N)C(=O)O [D-AptideHSA] (H-[dH][dA][dH][dF][dN][dF]G[dS][dW][dT][dW][dE][dN]G[dK][dW][dT][dW][dK]G[dI][dW][dL][dP][dA][dR]-OH; N-terminus and C-terminus assumed)
kd ([1]; HSA on CM5 chip, PBS pH 7.4): 0.014 s⁻¹
kon ([1]; HSA on CM5 chip): 97000 M⁻¹ s⁻¹

CC[C@H](C)[C@H](NC(=O)CNC(=O)[C@H](CCCCN)NC(=O)[C@H](Cc1c[nH]c2ccccc12)NC(=O)[C@@H](NC(=O)[C@H](Cc1c[nH]c2ccccc12)NC(=O)[C@H](CCCCN)NC(=O)CNC(=O)[C@H](CC(N)=O)NC(=O)[C@H](CCC(=O)O)NC(=O)[C@H](Cc1c[nH]c2ccccc12)NC(=O)[C@@H](NC(=O)[C@H](Cc1c[nH]c2ccccc12)NC(=O)[C@H](CO)NC(=O)CNC(=O)[C@H](Cc1ccccc1)NC(=O)[C@H](CC(N)=O)NC(=O)[C@H](Cc1ccccc1)NC(=O)[C@H](Cc1c[nH]cn1)NC(=O)[C@H](C)NC(=O)[C@@H](N)Cc1c[nH]cn1)[C@@H](C)O)[C@@H](C)O)C(=O)N[C@@H](Cc1c[nH]c2ccccc12)C(=O)N[C@@H](CC(C)C)C(=O)N1CCC[C@H]1C(=O)N[C@@H](C)C(=O)N[C@@H](CCCNC(=N)N)C(=O)O [L-AptideHSA] (H-HAHFNFGSWTWENGKWTWKGIWLPAR-OH; N-terminus and C-terminus assumed)
kd ([1]; HSA on CM5 chip, PBS pH 7.4): 0.013 s⁻¹
kon ([1]; HSA on CM5 chip): 95000 M⁻¹ s⁻¹

CC[C@@H](C)[C@@H](NC(=O)[C@@H](CCCNC(=N)N)NC(=O)[C@@H](CC(C)C)NC(=O)[C@@H](CCC(=O)O)NC(=O)[C@H](N)CCC(N)=O)C(=O)N[C@@H](C(=O)NCC(=O)N[C@H](CCCCN)C(=O)N[C@H](Cc1c[nH]c2ccccc12)C(=O)N[C@@H](C(=O)N[C@H](Cc1c[nH]c2ccccc12)C(=O)N[C@H](CCCCN)C(=O)NCC(=O)N[C@H](CC(N)=O)C(=O)N[C@H](CCC(=O)O)C(=O)N[C@H](Cc1c[nH]c2ccccc12)C(=O)N[C@@H](C(=O)N[C@H](Cc1c[nH]c2ccccc12)C(=O)N[C@H](CO)C(=O)NCC(=O)N[C@@H](C(=O)N[C@H](C)C(=O)N[C@H](CO)C(=O)N[C@H](CO)C(=O)N[C@H](CS)C(=O)N[C@H](Cc1c[nH]cn1)C(=O)O)C(C)C)[C@H](C)O)[C@H](C)O)[C@H](C)CC [RI-Aptide1EDB] (H-[dQ][dE][dL][dR][dI][dI]G[dK][dW][dT][dW][dK]G[dN][dE][dW][dT][dW][dS]G[dV][dA][dS][dS][dC][dH]-OH; N-terminus and C-terminus assumed)
Kd [2, 6]: 58 nM
koff (dissociation rate constant) [2, 6]: 0.0011 s⁻¹
kon ([2]; biotin-EDB on SA chip, PBS pH 7.4, read-out: ka): 19000 M⁻¹ s⁻¹
binding to target, in words ([2]; compared with L-Aptide): affinity similar to L-Aptide

CC[C@@H](C)[C@@H](NC(=O)[C@@H](Cc1c[nH]c2ccccc12)NC(=O)[C@@H](CC(C)C)NC(=O)[C@H]1CCCN1C(=O)[C@@H](C)NC(=O)[C@H](N)CCCNC(=N)N)C(=O)NCC(=O)N[C@H](CCCCN)C(=O)N[C@H](Cc1c[nH]c2ccccc12)C(=O)N[C@@H](C(=O)N[C@H](Cc1c[nH]c2ccccc12)C(=O)N[C@H](CCCCN)C(=O)NCC(=O)N[C@H](CC(N)=O)C(=O)N[C@H](CCC(=O)O)C(=O)N[C@H](Cc1c[nH]c2ccccc12)C(=O)N[C@@H](C(=O)N[C@H](Cc1c[nH]c2ccccc12)C(=O)N[C@H](CO)C(=O)NCC(=O)N[C@H](Cc1ccccc1)C(=O)N[C@H](CC(N)=O)C(=O)N[C@H](Cc1ccccc1)C(=O)N[C@H](Cc1c[nH]cn1)C(=O)N[C@H](C)C(=O)N[C@H](Cc1c[nH]cn1)C(=O)O)[C@H](C)O)[C@H](C)O [RI-AptideHSA] (H-[dR][dA][dP][dL][dW][dI]G[dK][dW][dT][dW][dK]G[dN][dE][dW][dT][dW][dS]G[dF][dN][dF][dH][dA][dH]-OH; N-terminus and C-terminus assumed)
Kd ([1]; HSA on CM5 chip, PBS pH 7.4): 141 nM
kd ([1]; HSA on CM5 chip, PBS pH 7.4): 0.0082 s⁻¹
kon ([1]; HSA on CM5 chip): 58000 M⁻¹ s⁻¹
binding to target, in words ([1]; compared with L-Aptide): affinity similar to L-Aptide

SQNYKWGKWTWKGNEWTWSGQFFNAH [RI-Aptide1VEGF]
binding to target, in words [3]: barely bound
Kd [3, 7]: Non-binding
ka [3, 7]: Non-binding
kd [3, 7]: Non-binding

B1: D-AptideHSA (designed binder)
peptide: [dH][dA][dH][dF][dN][dF]G[dS][dW][dT][dW][dE][dN]G[dK][dW][dT][dW][dK]G[dI][dW][dL][dP][dA][dR]
Kd [4]: 153 nM
koff [4]: 0.014 s⁻¹

B2: RI-AptideHSA (designed binder)
peptide: [dR][dA][dP][dL][dW][dI]G[dK][dW][dT][dW][dK]G[dN][dE][dW][dT][dW][dS]G[dF][dN][dF][dH][dA][dH]
koff [4]: 0.0082 s⁻¹

B3: L-AptideHSA (designed binder)
peptide: HAHFNFGSWTWENGKWTWKGIWLPAR
notes: Synthetic 26-mer, all L-amino acids; also called AptideHSA (L-form)
Kd [4]: 142 nM
koff [4]: 0.013 s⁻¹

B4: L-Aptide1VEGF (designed binder)
peptide: HANFFQGSWTWENGKWTWKGWKYNQS
notes: Synthetic 26-mer, all L-amino acids; also called L-AptideVEGF; Aptide1VEGF (L-form)
Kd [5]: 30 nM
koff [5]: 0.01 s⁻¹

B5: D-Aptide1VEGF (designed binder)
peptide: [dH][dA][dN][dF][dF][dQ]G[dS][dW][dT][dW][dE][dN]G[dK][dW][dT][dW][dK]G[dW][dK][dY][dN][dQ][dS]
koff [5]: 0.0066 s⁻¹
